Laboratory results: patent US6465428B1, “Pharmaceutical combinations based on dalfopristine and quinupristine, and on cefepime” (Aventis Pharma S.A., priority 1999, dated 2002)
Converted amounts (≈) assume the structure as drawn.

Key:
[1] = test system: C-MLSB resistant MRSA AW7 and P8; test: Experimental endocarditis in rats; format: in vivo, rat; conditions: i.v. pump simulating human kinetics, every 12 hours
Excerpt: Sterile aortic vegetations were produced in female Wistar rats (weight 180 to 200 g) by the method of Heraiefet al., Infect Immunol., 37, 127-31 (1982), the disclosure of which is incorporated herein by reference in its entirety. Close by, an intravenous line containing a Silastic catheter was inserted into the jugular vein of a rat. The distal portion of the catheter was connected to a programmable pump device through a swivel, thus allowing the animals to move around their cage. The pump was set to deliver a volume of 0.2 ml of saline per hour to keep the line open until the onset of the therapy. In some experiments, quinupristine/dalfopristine was injected in combination with cefepime to the animals, with 2 infusion pumps, one to simulate human kinetics of quinupristine/dalfopristine and one to simulate human kinetics of cefepime. The 2 pumps were connected to a 2 way swivel and the drugs were infused into the animals via 2 independent jugular lines. No i.v. lines were placed in the control animals. Bacterial endocarditis was induced 24 hours after catheterization of the animals with 0.5 ml of saline containing 10^5 CFU of either of the test organisms. This inoculum was 10 times larger than the minimum inoculum producing endocarditis in 90% of the untreated rats.
Treatment was started 12 hours after bacterial challenge and lasted 3 or 5 days. The distribution of the antibiotics simulated the drug kinetics in the serum of humans. Quinupristine/dalfopristine was given to simulate treatment in humans with 7 mg/kg of the drug administered i.v. every 12 hours. Cefepime was given to simulate treatment in humans with 2 g of the drug given i.v. every 12 hours. This required, for the experiment, a total amount (mg/kg of body weight) per 12 hours of 38 mg/kg of quinupristine/dalfopristine and 142 mg/kg of cefepime.
The control rats were sacrificed at the onset of the treatment (i.e., 12 hours after inoculation) in order to measure both the frequency and the severity of valvular infection at the start of the therapy. Treated rats were sacrificed 12 hours after the low level of the last antibiotic dose of either test drug. At that time, no residual antibiotic could be detected in the blood. The valvular vegetation were dissected under sterile conditions, weighed, homogenized in 1 ml of saline, and serially diluted before being plated for colony counts. The number of colonies growing on the plates was determined after 48 hours of incubation at 35° C. Bacterial densities in the vegetations were expressed as log10 CFU/g of tissue. The minimum detection level was ≧2 log10 CFU/g of vegetation. For statistical comparisons of differences between the vegetation bacterial densities of various treatment groups, culture-negative vegetations were considered to contain 2 log10 CFU/g. […]

[2] = test system: MRSA clinical isolates (Staphylococcus aureus resistant to methicillin); test: MIC by broth macrodilution; format: cell-based; conditions: for Range of MICs: 5 clinical isolates, 24 h at 35° C.
Description: A panel of 10 clinical isolates of MRSA (5 MLSB-susceptible (susceptible to Macrolide-Lincosamide-Streptogramin B) and 5 C-MLSB-resistant (Constitutively Resistant to Macrolide-Lincosamide-Streptogramin B)) originating from various geographical areas were tested for their susceptibilities to quinupristin/dalfopristin and to cefepime. Two of these isolates, namely AW7 and P8, were further used for animal experiments. These both were C-MLSB-resistant.
Bacteria were grown at 35° C., either in liquid cultures in tryptic soy broth (TSB; Difco Laboratories, Detroit, Mich.) or cation supplemented Mueller Hinton Broth (MHB; Difco), or on tryptic soy agar (TSA; Difco). All growth media were supplemented with 2% of sodium chloride to increase the expression of β-lactam resistance by MRSA. Bacterial stocks were kept at −70° C. in TSB, supplemented with 10% (vol/vol) glycerol.
The MIC (minimum inhibitory concentration) of the tested antibiotics was determined by a known broth macrodilution method (D. Amsterdam, Susceptibility testing of antimicrobials in liquid media, p.52-111, In V. Lorian ed., Antibiotics in Laboratory Medicine, Williams and Wilkins, Baltimore (1996)) with final inoculum of 10^5 to 10^6 CFU/ml. The MIC was defined as the lowest antibiotic concentration that inhibited visible bacterial growth after 24 hours of incubation at 35° C.

Range of MICs ([2]; MRSA C-MLSB-R): >64 mg/L
Range of MICs ([2]; MRSA MLSB-S): >64 mg/L
MIC ([2]; Staphylococcus aureus, C-MLSB resistant MRSA AW7 and P8): 64 µg/mL (≈ 133 µM)
Structure (SMILES): CO/N=C(\C(=O)N[C@@H]1C(=O)N2C(C(=O)[O-])=C(C[N+]3(C)CCCC3)CS[C@H]12)c1csc(N)n1 [cefepime, (6R,7R)-7-(2-(2-aminothiazol-4-yl)-2(Z)-(methoxyimino)acetamido)-3-(1-methyl-pyrrolidiniomethyl)-3-cephem-4-carboxylate]
infected rats/total rats ([1]; Strain AW-7): 6/6
median log10 CFU/g of vegetation ([1]; Strain AW-7): (8.6) log10 CFU/g
infected rats/total rats ([1]; Strain P8): 8/8
median log10 CFU/g of vegetation ([1]; Strain P8): (9.0) log10 CFU/g
